Here are results for 1 molecule from patent publication US8318504B2, “MRP2 efflux pathway prognostic method” (priority 2009, dated 2012).

Common to all, as to format: cell-based
In one data set the test system is wild type CHO cells. The data set is described as follows: Effect of CLF on substrate uptake in wild type CHO cells. How it is done:
For all transport experiments, cells grown on 3 cm culture dishes were cultured for 24 hours in media supplemented with 5 mmol/L sodium-butyrate to increase expression levels of transfected transporters [Palermo D P et al., J Biotechnol 1991 June; 19(1):35-47]. • Transport experiments with uptake of radioactively labeled substrates: These experiments were performed as described by Huber R D et al. [Am J Physiol Cell Physiol 2007 February; 292(2):C795-C806]. • Transport experiments with uptake of CLF: Uptake was performed in the same buffers as for the radioactive substrates above. For visualization of CLF uptake, cells were immediately inspected with a Leica-DM-IRBE-inverted-microcope (Leica-Microsystems, Wetzlar, Germany) equipped with a Hamamatsu-ORKA-ER-camera (Hamamatsu-Photonoics, Japan). To determine uptake of CLF, cells were solubilized by the addition of 2 ml 1% (w/v) Triton-X-100. After complete solubilization, 1.5 ml was used to measure fluorescence in a Perkin-Elmer LS-5 luminescence-spectrometer set at λexe 486 nm (slit 10 nm) and λem 520 nm (slit 5 nm). Protein was determined with the bicinchoninic acid method using a kit from Interchim (Montfuçon, France). Transport data from OATP expressing cell lines were corrected for binding by subtracting 0 min time points (blank values) and except for FIGS. 2B and 2C were normalized per minute. […]

Another data set addresses T1, OATP2B1 (Homo sapiens, UniProt O94956).
T1 construct: expressed in transfected cells; host or cells: CHO cells (stably transfected; Treiber et al. 2007)
T1 sequence (O94956 1-709): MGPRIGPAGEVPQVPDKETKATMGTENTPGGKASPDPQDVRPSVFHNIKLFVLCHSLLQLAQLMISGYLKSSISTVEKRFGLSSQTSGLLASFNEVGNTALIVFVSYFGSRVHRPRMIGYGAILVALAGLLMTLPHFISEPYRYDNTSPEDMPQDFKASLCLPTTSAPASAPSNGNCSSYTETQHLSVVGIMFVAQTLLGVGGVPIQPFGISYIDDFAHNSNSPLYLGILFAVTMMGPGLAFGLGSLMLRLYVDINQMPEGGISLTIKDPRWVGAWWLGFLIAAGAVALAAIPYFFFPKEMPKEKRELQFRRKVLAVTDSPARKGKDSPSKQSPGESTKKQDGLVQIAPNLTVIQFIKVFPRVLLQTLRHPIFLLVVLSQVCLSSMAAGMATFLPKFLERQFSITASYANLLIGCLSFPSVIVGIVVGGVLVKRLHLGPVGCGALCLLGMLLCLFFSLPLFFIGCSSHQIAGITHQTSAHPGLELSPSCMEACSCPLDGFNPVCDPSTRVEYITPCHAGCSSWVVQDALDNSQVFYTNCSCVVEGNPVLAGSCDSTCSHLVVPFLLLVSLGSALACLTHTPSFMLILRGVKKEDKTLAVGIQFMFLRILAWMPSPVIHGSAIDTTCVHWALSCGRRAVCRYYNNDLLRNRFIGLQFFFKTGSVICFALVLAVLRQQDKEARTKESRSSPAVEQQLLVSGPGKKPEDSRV
The data set is described as follows: Inhibition by CLF of estrone-3-sulfate transport in CHO cells expressing OATP2B1. To be noted: 0, 5 or 50 μmol/L CLF, 1 μmol/L estrone-3-sulfate. How it is done:
(§1) FIGS. 3A-3D relate to inhibition of transport activity of hepatocellular uptake transporters by CLF. CHO cells expressing NTCP, OATP1B1, OATP1B3 and OATP2B1 were incubated with 0, 5 or 50 μmol/L CLF and with the substrates, 2.5 μmol/L TC, 1 μmol/L estrone-3-sulfate, 10 μmol/L TC and 1 μmol/L estrone-3-sulfate, respectively. Data represent means±SD of triplicate determinations.
(§2) For all transport experiments, cells grown on 3 cm culture dishes were cultured for 24 hours in media supplemented with 5 mmol/L sodium-butyrate to increase expression levels of transfected transporters [Palermo D P et al., J Biotechnol 1991 June; 19(1):35-47]. • Transport experiments with uptake of radioactively labeled substrates: These experiments were performed as described by Huber R D et al. [Am J Physiol Cell Physiol 2007 February; 292(2):C795-C806]. • Transport experiments with uptake of CLF: Uptake was performed in the same buffers as for the radioactive substrates above. […] After complete solubilization, 1.5 ml was used to measure fluorescence in a Perkin-Elmer LS-5 luminescence-spectrometer set at λexe 486 nm (slit 10 nm) and λem 520 nm (slit 5 nm). Protein was determined with the bicinchoninic acid method using a kit from Interchim (Montfuçon, France). […]

The next data set has as its target T2, OATP1B3 (Homo sapiens, UniProt Q9NPD5).
T2 construct: expressed in transfected cells; host or cells: CHO cells (stably transfected; Treiber et al. 2007)
T2 sequence (Q9NPD5 1-702): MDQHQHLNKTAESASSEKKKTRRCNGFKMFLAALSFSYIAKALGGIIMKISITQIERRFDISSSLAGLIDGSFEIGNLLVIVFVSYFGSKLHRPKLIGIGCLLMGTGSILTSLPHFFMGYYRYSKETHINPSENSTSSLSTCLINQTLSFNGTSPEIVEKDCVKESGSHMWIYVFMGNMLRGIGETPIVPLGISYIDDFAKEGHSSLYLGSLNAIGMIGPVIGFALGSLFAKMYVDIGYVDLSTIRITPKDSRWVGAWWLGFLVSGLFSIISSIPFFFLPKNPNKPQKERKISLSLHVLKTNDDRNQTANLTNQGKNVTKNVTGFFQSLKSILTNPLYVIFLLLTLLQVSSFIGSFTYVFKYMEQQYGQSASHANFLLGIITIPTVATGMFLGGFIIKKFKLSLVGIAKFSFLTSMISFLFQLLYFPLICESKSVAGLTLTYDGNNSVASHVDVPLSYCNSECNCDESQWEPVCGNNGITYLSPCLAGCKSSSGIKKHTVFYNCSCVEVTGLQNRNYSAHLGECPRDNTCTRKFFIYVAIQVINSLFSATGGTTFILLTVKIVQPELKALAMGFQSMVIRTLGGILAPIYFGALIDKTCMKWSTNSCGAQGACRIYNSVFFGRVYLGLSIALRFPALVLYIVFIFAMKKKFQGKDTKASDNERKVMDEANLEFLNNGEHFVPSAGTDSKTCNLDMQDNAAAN
The data set is described as follows: Inhibition by CLF of TC transport in CHO cells expressing OATP1B3. The note with it: 0, 5 or 50 μmol/L CLF, 10 μmol/L TC. The procedure: as §1, §2

SMILES strings stand for the structures.

`CC(CCC(=O)NC(CCCCNC(=S)Nc1ccc(-c2c3ccc(=O)cc-3oc3cc(O)ccc23)c(C(=O)O)c1)C(=O)O)C1CCC2C3C(O)CC4CC(O)CCC4(C)C3CC(O)C12C` (stereo not drawn) [CLF, cholyl lysyl fluorescein]: in the data set with wild type CHO cells, the “influence of CLF on substrate uptake in wild type cells” value is listed as “no influence on substrate uptake”. In addition, on OATP2B1, the “inhibition of transport of estrone-3-sulfate mediated by OATP2B1 by CLF” value was “much less efficiently”. For the same molecule, the “inhibition of transport of TC mediated by OATP1B3 by CLF” value at OATP1B3 is on record as “inhibited by CLF in a dose-dependent manner”.
